Like-named read-outs stand apart in the source and are kept apart here.
Assays:
[1] = 20° C.; cited from earlier work
[2] = estimated melting point temperature ranges of candidate organic compounds (Table 2); some compounds have several values, partly in parentheses, because analytic techniques differ; cited from earlier work

Structure (SMILES) | Vapor Pressure [1] | Melting Point [°C] | Melting Point [2]
OCC(CO)(CO)CO [pentaerythritol, 2,2-Bis(hydroxymethyl)-1,3-propanediol] | <1 mmHG (20° C.) |  | 
CCCCCCCCn1cnc2c(=S)nc[nH]c21 [Example 188] |  | 264 to 266 | 264-266° ° C.
c1ccc2c(c1)[nH]c1ccc3ccncc3c12 [Example 132] |  | 259 to 260 | 259-260° ° C.
CC(=O)N[C@H]1[C@@H](OCc2ccccc2)O[C@@H]2CO[C@H](c3ccccc3)O[C@H]2[C@@H]1O [Example 176] |  | 263 to 264 | 263-264° ° C.
O=C(C=Cc1ccccc1)NCCCCNC(=O)C=Cc1ccccc1 [Example 74] |  | 249 to 253 | 249-253° ° C.
Cn1cnc2ncn(C)c2c1=O [Example 41] |  | 245 to 246 | 245-246° ° C.
c1ccc(-c2nc(-c3ccccc3)c(-c3ccccc3)nc2-c2ccccc2)cc1 [Example 69] |  | 248 | 248° ° C.
CN1Cc2cc(C3=NNC(=O)CC3)ccc2NC1=O [Example 79] |  | 250 | 250° ° C.
Oc1c2ccc3ccccc3c2cc2ccc3ccccc3c12 [Example 101] |  | 254 to 256 | 254-256° ° C.
CC(C)(C)C1=CC(=C2C=C(C(C)(C)C)C(=O)C(C(C)(C)C)=C2)C=C(C(C)(C)C)C1=O [Example 22] |  | 243 to 245 | 243-245° ° C.
NC(=O)c1c2c(nc3ccccc13)CCCC2 [Example 191] |  | 265 to 267 | 265-267° ° C.
CC1(C)Oc2ccc(C#N)cc2[C@H](n2ccccc2=O)[C@H]1O [Example 45] |  | 245 to 246 | 245-246° ° C.
C#C/C=C/C1C(O)CCCC12CCCC(CCCC#C)N2 (stereo not shown) [Example 60] |  | 247 to 250 | 247-250° ° C.
